Test results from ChEMBL document CHEMBL3286334, “Identification of tetrapeptides from a mixture based positional scanning library that can restore nM full agonist function of the L106P, I69T, I102S, A219V, C271Y, and C271R human melanocortin-4 polymorphic receptors (hMC4Rs)” (J Med Chem, 2014).
Each block holds one compound with its values, some of them ahead of it.

Experiments:
Assay type in all cases: functional, cell-based
[1] = test system: Melanocortin receptor 4 (Homo sapiens), P32245 [L106P]; experiment: Agonist activity at human melanocortin-4 receptor L106P mutant expressed in HEK293 cells co-transfected with CRE/beta-galactosidase reporter gene assessed as stimulatory response at 10 uM after 6 hrs
Melanocortin receptor 4 [2] = target: T1, Melanocortin receptor 4 (Homo sapiens, UniProt P32245); experiment: Agonist activity at wild type human melanocortin-4 receptor expressed in HEK293 cells co-transfected with CRE/beta-galactosidase reporter gene assessed as stimulatory response after 6 hrs
Melanocortin receptor 4 [3] = target: Melanocortin receptor 4 (Homo sapiens, UniProt P32245, C271R); experiment: Agonist activity at human melanocortin-4 receptor C271R mutant expressed in HEK293 cells co-transfected with CRE/beta-galactosidase reporter gene assessed as stimulatory response after 6 hrs
Melanocortin receptor 4 [4] = target: Melanocortin receptor 4 (Homo sapiens, UniProt P32245, L106P); experiment: Agonist activity at human melanocortin-4 receptor L106P mutant expressed in HEK293 cells co-transfected with CRE/beta-galactosidase reporter gene assessed as stimulatory response after 6 hrs
Melanocortin receptor 5 = Melanocortin receptor 5 (Mus musculus, UniProt P41149); experiment: Agonist activity at mouse melanocortin-5 receptor expressed in HEK293 cells co-transfected with CRE/beta-galactosidase reporter gene assessed as stimulatory response after 6 hrs
Melanocortin receptor 4 [5] = target: Melanocortin receptor 4 (Homo sapiens, UniProt P32245, C271Y); experiment: Agonist activity at human melanocortin-4 receptor C271Y mutant expressed in HEK293 cells co-transfected with CRE/beta-galactosidase reporter gene assessed as stimulatory response after 6 hrs
Melanocortin receptor 4 [6] = target: Melanocortin receptor 4 (Homo sapiens, UniProt P32245, I102S); experiment: Agonist activity at human melanocortin-4 receptor I102S mutant expressed in HEK293 cells co-transfected with CRE/beta-galactosidase reporter gene assessed as stimulatory response after 6 hrs
Melanocortin receptor 4 [7] = target: Melanocortin receptor 4 (Homo sapiens, UniProt P32245, A219V); experiment: Agonist activity at human melanocortin-4 receptor A219V mutant expressed in HEK293 cells co-transfected with CRE/beta-galactosidase reporter gene assessed as stimulatory response after 6 hrs
[8] = target: Melanocyte-stimulating hormone receptor (Mus musculus, UniProt Q01727); experiment: Agonist activity at mouse melanocortin-1 receptor expressed in HEK293 cells co-transfected with CRE/beta-galactosidase reporter gene assessed as stimulatory response after 6 hrs
Melanocortin receptor 4 [9] = target: Melanocortin receptor 4 (Homo sapiens, UniProt P32245, I69T); experiment: Agonist activity at human melanocortin-4 receptor I69T mutant expressed in HEK293 cells co-transfected with CRE/beta-galactosidase reporter gene assessed as stimulatory response after 6 hrs
Melanocortin receptor 4 [10] = target: Melanocortin receptor 4 (Mus musculus, UniProt P56450); experiment: Agonist activity at mouse melanocortin-4 receptor expressed in HEK293 cells co-transfected with CRE/beta-galactosidase reporter gene assessed as stimulatory response after 6 hrs
Melanocortin receptor 4 [11] = target: T1, Melanocortin receptor 4; experiment: Agonist activity at wild type human melanocortin-4 receptor expressed in HEK293 cells co-transfected with CRE/beta-galactosidase reporter gene assessed as stimulatory response at 100 uM after 6 hrs
[12] = test system: Melanocortin receptor 4 (Homo sapiens), P32245 [L106P]; experiment: Agonist activity at human melanocortin-4 receptor L106P mutant expressed in HEK293 cells co-transfected with CRE/beta-galactosidase reporter gene assessed as stimulatory response at 100 uM after 6 hrs

Compound: CC(=O)N1Cc2ccccc2CC1C(=O)N[C@H](Cc1ccc(I)cc1)C(=O)N1Cc2ccccc2CC1C(=O)N[C@@H](Cc1ccc(I)cc1)C(N)=O (stereo partly drawn)
Activity [1]: 70%

Compound: CC(=O)N[C@@H](Cc1c[nH]cn1)C(=O)N[C@H](Cc1ccc(I)cc1)C(=O)N1Cc2ccccc2C[C@H]1C(=O)N[C@H](Cc1ccc([N+](=O)[O-])cc1)C(N)=O
EC50 (Melanocortin receptor 4 [2]): 0.24 nM | EC50 (Melanocortin receptor 4 [3]): 295 nM | EC50 (Melanocortin receptor 4 [4]): 10 nM | EC50 (Melanocortin receptor 5): 0.84 nM | EC50 (Melanocortin receptor 4 [5]): 190 nM | EC50 (Melanocortin receptor 4 [6]): 14 nM | EC50 (Melanocortin receptor 4 [7]): 4.5 nM | EC50 [8]: 2.9 nM | EC50 (Melanocortin receptor 4 [9]): 3.8 nM | EC50 (Melanocortin receptor 4 [10]): 2.4 nM

Compound: CC(=O)N[C@@H](CCCNC(=N)N)C(=O)N[C@H](Cc1ccc(Cl)cc1)C(=O)N1Cc2ccccc2C[C@H]1C(=O)N[C@H](Cc1ccc([N+](=O)[O-])cc1)C(N)=O
EC50 (Melanocortin receptor 4 [2]): 0.21 nM | EC50 (Melanocortin receptor 4 [3]): 3390 nM | EC50 (Melanocortin receptor 4 [4]): 3.4 nM | EC50 (Melanocortin receptor 5): 1 nM | EC50 (Melanocortin receptor 4 [5]): 470 nM | EC50 (Melanocortin receptor 4 [6]): 4.4 nM | EC50 (Melanocortin receptor 4 [7]): 4.2 nM | EC50 [8]: 22 nM | EC50 (Melanocortin receptor 4 [9]): 5.2 nM | EC50 (Melanocortin receptor 4 [10]): 7.6 nM

Compound: CC(=O)N[C@@H](Cc1c[nH]cn1)C(=O)N[C@H](Cc1ccc(Cl)cc1)C(=O)N1Cc2ccccc2C[C@H]1C(=O)N[C@H](Cc1ccc([N+](=O)[O-])cc1)C(N)=O
EC50 (Melanocortin receptor 4 [2]): 0.4 nM | EC50 (Melanocortin receptor 4 [3]): 130 nM | EC50 (Melanocortin receptor 4 [4]): 15 nM | EC50 (Melanocortin receptor 5): 0.63 nM | EC50 (Melanocortin receptor 4 [5]): 82 nM | EC50 (Melanocortin receptor 4 [6]): 3 nM | EC50 (Melanocortin receptor 4 [7]): 2.8 nM | EC50 [8]: 4 nM | EC50 (Melanocortin receptor 4 [9]): 4.3 nM | EC50 (Melanocortin receptor 4 [10]): 5.2 nM

Activity (Melanocortin receptor 4 [11]): 50% | Activity [12]: 50%
Compound: CC(=O)N1Cc2ccccc2CC1C(=O)N[C@H](Cc1ccc(I)cc1)C(=O)N1Cc2ccccc2CC1C(=O)N1Cc2ccccc2CC1C(N)=O (stereo partly drawn)
